Experimental data taken from patent US20260048118A1, “COMPOSITIONS AND METHODS FOR ENHANCING TRIPLEX AND NUCLEASE-BASED GENE EDITING” (Yale University, priority 2018, published 2026).

Columns and labels:
[1] = test system: SC-1 cells, a human lymphoblastoid cell line that carries the SCD mutation; test: Beta globin editing in SC-1 cells, ddPCR; format: cell-based; settings: 2 mg nanoparticles per well, 48 h, 3E10 line: 3E10 prior to nanoparticles
Method: SC-1 cells, a human lymphoblastoid cell line that carries the SCD mutation, were treated with 2 mg of nanoparticles per well with or without 3E10. After 48 hours, the cells were washed prior to genomic DNA isolation (SV Wizard, Promega). Freshly isolated genomic DNA was analyzed by droplet digital PCR (ddPCR) for editing frequencies.

[2] = test system: K562 cells carrying a BFP/GFP reporter gene; test: CRISPR/Cas9 D10A nickase gene editing in K562 BFP/GFP reporter cells, flow cytometry; format: cell-based, human; settings: full-length 3E10 1.5 mg/mL=10 μM, RNP plus donor DNA nucleofected, two days
Method: K562 cells carrying a BFP/GFP reporter gene (Richardson, et al., Nat. Biotechnol., 34 (3): 339-44 (2016)) were transfected with CRISPR/Cas9 WT or CRISPR/Cas9 D10A nickase variant enzymes plus a guide RNA targeting the mutation site in GFP. Some samples were also treated with full-length 3E10, at a concentration of 1.5 mg/mL=10 μM.
Cas9 protein and guide RNAs were introduced by nucleofection as a ribonucleoprotein (RNP) complex. 45 pmol of Cas9 protein (D10A nickase variant or WT, both obtained from PNA Bio) with 45 pmol of sgRNA (synthesized with Invitrogen GeneArt kit) in Cas9 nuclease buffer (NEB), were pre-incubated for 5 minutes at room temperature.
Cells were nucleofected with the RNP complex and donor DNA having the sequence:
The frequency of gene editing was measured two days later by flow cytometry for green fluorescence.

[3] = test system: CD117+ cells from bone marrow and spleen of β-globin/GFP transgenic mice; test: In vivo gene editing in CD117+ cells of β-globin/GFP transgenic mice, GFP flow cytometry; design: species or system mouse; settings: 0.5 mg 3E10 i.p. 3 h before 2 mg PNA/DNA nanoparticles i.v.; harvested after eight days
Method: To evaluate the effects of 3E10 on PNA/DNA directed gene editing in vivo, the same β-globin/GFP transgenic mouse model described above was used. Three hours prior to treatment with nanoparticles, mice were injected with 0.5 mg of 3E10 intraperitoneally (i.p.). Either the full-length 3E10 or a single-chain variable fragment (scFv) were used. Two mg of nanoparticles containing PNA/Donor DNA were then injected intravenously. After eight days, bone marrow and spleens were harvested and CD117+ cells (C-KIT+, a marker of hematopoietic stem and progenitor cells) from these tissues were isolated using a Hematopoietic Progenitor Stem Cell Enrichment Set (BD Bioscience). Following enrichment, cells were analyzed via flow cytometry for GFP expression.

[4] = test system: bone marrow cells from Townes mice (beta globin gene, SCD mutation); test: PNA/DNA editing of beta globin SCD mutation in bone marrow cells from Townes mice, ddPCR; format: cell-based, mouse; settings: 2 mg nanoparticles per well, 48 h, 3E10 line: full length 3E10 plus nanoparticles
Method: Bone marrow cells were isolated from the same transgenic mouse model of sickle cell disease described above in Example 3 (Townes model, Jackson Laboratory). Cells were treated with full length 3E10 plus 2 mg of nanoparticles per well. The nanoparticles contained the donor DNA plus tcPNA2A, designed to bind to and correct the beta globin gene at the site of the SCD mutation (A:T to T:A).
After 48 hours, the cells were washed prior to genomic DNA isolation (SV Wizard, Promega). Freshly isolated genomic DNA was analyzed by droplet digital PCR (ddPCR) to quantify gene editing frequencies.

[5] = test system: bone marrow cells of Townes mice (codon 6 mutation in the beta globin gene); test: In vivo PNA/DNA editing in Townes mice, bone marrow cells analysed by ddPCR; design: species or system mouse; settings: 4 doses of 2 mg nanoparticles over 2 weeks, analysed after two months; 3E10 line: 1 mg 3E10 i.p. 3 h prior to each dose
Method: To further validate whether 3E10 can boost gene editing in vivo, the Townes model (the same sickle cell transgenic mouse model used in Examples 3 and 4) was used. Mice were injected with a total of 4 doses of 2 mg of nanoparticles containing PNA/donor DNA over the course of 2 weeks, with the goal of correcting the codon 6 mutation in the beta globin gene. Three hours prior to each nanoparticle administration, mice were injected with 1 mg of 3E10 intraperitoneally (i.p). After two months, bone marrow cells were harvested and analyzed for editing via digital droplet PCR (ddPCR). Injections were performed […] every 3 days over the course of 2 weeks as described above.

Substance: 3E10: cell-penetrating monoclonal anti-DNA antibody that binds to and inhibits RAD51; produced by ATCC No. PTA 2439 hybridoma
- gene editing frequency (ddPCR) [1]: 17%
- effect on gene editing by nickase Cas9 D10A (green fluorescence) [2]: substantially boosted gene editing
- gene editing in bone marrow CD117+ cells vs nanoparticles alone [3]: higher levels of gene editing
- gene editing in spleen CD117+ cells vs nanoparticles alone [3]: higher levels of gene editing
- gene editing frequency (ddPCR) [4]: more than 8%
- average editing frequency in bone marrow cells (ddPCR) [5]: 2.1%
